Data as given in PMC5441580, “GPR40 partial agonist MK-2305 lower fasting glucose in the Goto Kakizaki rat via suppression of endogenous glucose production” (PLoS ONE, 2017).
Values joined by “and” are separate entries in the source; they are usually repeats but may differ in a detail not shown here. Equal entries are not always repeated.

Columns and labels:
rat GPR120 (FFAR4) = target: T1, rat GPR120 (FFAR4) (Rattus norvegicus, UniProt Q2AC31); experiment: IP1 functional assay, HEK293 cells stably expressing rat GPR120; assay type: cell-based; details: individual experiments (raw data of Table 1)
T1 construct: expressed in transfected cells
T1 sequence (Q2AC31 1-361): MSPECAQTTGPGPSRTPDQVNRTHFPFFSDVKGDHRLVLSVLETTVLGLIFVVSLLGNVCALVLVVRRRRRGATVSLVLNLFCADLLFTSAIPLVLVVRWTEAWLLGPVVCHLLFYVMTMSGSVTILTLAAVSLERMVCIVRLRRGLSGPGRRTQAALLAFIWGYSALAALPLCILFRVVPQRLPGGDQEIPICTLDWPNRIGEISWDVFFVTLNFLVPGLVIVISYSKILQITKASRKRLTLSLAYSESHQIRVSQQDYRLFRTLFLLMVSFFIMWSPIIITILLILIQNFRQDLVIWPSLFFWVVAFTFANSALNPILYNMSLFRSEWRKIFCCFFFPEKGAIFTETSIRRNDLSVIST
Experimental: CHO Jump-IN cells stably expressing rat GPR40 or HEK293 Jump-IN cells stably expressing rat GPR120 were cultured in DMEM media supplemented with 10% dialyzed FBS, non-essential amino acids, penicillin/streptomycin, 10 μg/ml Blasticidin S HCL and 200 or 100 μg/ml Hygromycin B, respectively (Life Technologies). Cell stocks were maintained and grown in a sub-confluent state using standard cell culture procedures. The day before the experiment, the cells were harvested with non-enzymatic cell dissociation buffer and re-suspended in DMEM supplemented as described above at 0.15 million cells per ml. […] The seeded plates were incubated overnight at 37°C in a humidified environment.
On the day of the experiment, the growth media was removed from the assay plate by centrifugation using a BlueCatBio BlueWasher, protocol #21 “Light Dry” and 10 μl of IP1 stimulation buffer (prepared according to the Cisbio IP-one Tb HTRF kit) is added to each well. Test compounds were dissolved and serially diluted in DMSO as 200X the final assay concentration and 50 nl of the compound dilution was acoustically added to each well of the assay plates. The plates were then incubated for 60 minutes at room temperature and 10 μl of detection buffer (prepared according to the IP-one Tb HTRF kit) is added to each well of the assay plate. […] Maximal % activation and EC50 are then determined for each test compound.

WKY rats = experiment: endogenous glucose production in vivo, 2H/13C dual tracer, acute treatment, WKY rats; parameters: species or system rat
Experimental: [The procedure below names another organism; the source lists this organism under the same test.] To evaluate whether MK-2305 treatment produced an effect on EGP in vivo, a ^2H/^13C dual tracer approach was used to calculate EGP and its contributing sources. On the day of the study, GK rats were bled via tail snip, and blood glucose was measured via glucometer. Ambient glucose was measured at 8 A.M. and used to sort animals into treatment groups (n = 8 per group). 0.9% NaCl salinated D2O (Sigma-Aldrich, St. Louis, MO) was administered to all animals via IP injection at dose volume of 20 ml/kg. Animals were then placed in clean cages and food was removed. After a 5 hour fast, blood glucose was measured and animals were dosed PO with MK-2305 at 10 mg/kg (5 ml/kg) or vehicle (0.5% methylcellulose) immediately followed by 50 mg/kg [U-^13C] glucose (Sigma-Aldrich) IP at 5 ml/kg. Blood was collected via tail snip at time points from 60–150 min post treatment to measure blood glucose as well as endogenous (^12C-glucose) and exogenous (^13C-glucose) via GCMS. Following the last tail blood collection, rats were anesthetized with isoflurane and cardiac blood was collected into K2EDTA tubes (Becton, Dickinson and Co., Franklin Lakes, NJ).
The serially collected blood samples were analyzed for ^13C-glucose enrichment using GC-MS analysis. The % ^13C glucose enrichments were then combined with the total glucose readings to calculate the concentration of ^13C-glucose, and these values were modeled with a two-compartment model of whole body glucose metabolism to calculate the average EGP for the period from 0–150 minutes.
Terminal blood samples were analyzed for relative ^2H enrichment in plasma glucose using the monoacetone glucose method. Briefly, samples were extracted with 70% perchloric acid and centrifuged at 25,000 rcf for 10 min at 4°C. The supernatant was collected and the pH was adjusted to 6–8 using KOH. The samples were then lyophilized overnight. To convert plasma glucose to monoacetone glucose (MAG), acetone and concentrated sulfuric acid were added to the lyophilized samples and stirred for 4 hours at room temperature. Water was then added and the pH adjusted to 2.0 with 3M Na2CO3. Samples were stirred moderately for 18 hours at room temperature, the pH was adjusted to 7 with 3M Na2CO3, and the samples were completely dried by speed vacuum concentration. The resulting MAG samples were then extracted in hot ethyl acetate, dried overnight under a stream of N2 gas, purified using Discovery DSC-18 SPE columns (6 ml, 1 g bed weight), and freeze dried. Purified MAG samples were solubilized in 180 μl 90% acetonitrile for ^2H NMR analysis which was performed using the lock channel of a 950 MHz Bruker NMR spectrometer (David H Murdock Research Institute, Kannapolis, NC). Acquisition parameters were as follows: 90° pulse, D1 = 1 s, ^1H broadband decoupling, NS = 3600 averages, acquisition time ~ 1 hr. The ^2H NMR spectra of the MAG samples were then analyzed using in–house developed Matlab (The Mathworks Inc, Natick, MA) to model the NMR peaks with a Lorentzian line shape, and the results were used to calculate integrals for each of the seven NMR resonances in the MAG spectrum. Peaks 2, 5, and 6s were then used to calculate the relative sources of EGP (i.e. gluconeogenesis from TCA cycle substrates, gluconeogenesis from triose phosphates, and glycogenolysis) and these values were combined with the total EGP measurement to calculate absolute fluxes of glucose production.

[1] = acute treatment, 10 mg/kg, individual animals

Question: `O=C1NC(=O)C(C2CCOc3cc(Oc4ccc(C(F)(F)F)cc4Cl)ccc32)S1` (stereo not shown) [MK-2305] was tested. Which “% Activation” value (rat GPR120 (FFAR4)) did it give?
Answer: The value was -22% and -18% and -16% and 8%.

Question: What about the EC50 (rat GPR120 (FFAR4)) of the same compound?
Answer: The EC50 was over 10 µM.

Question: And the “effects on EGP” value (WKY rats; acute)?
Answer: The value was “not statistically significant”.

Question: And the “Glucose Production, GNG Glycerol” value (WKY rats; [1])?
Answer: Its value is 2.7 umol/kg/min (2×) and 2.4 umol/kg/min and 1.6 umol/kg/min.

Question: What about the “Glucose Production, GNG TCA” value (WKY rats; [1]) of the same compound?
Answer: Its value is 8 µmol/kg/min and 8.7 µmol/kg/min and 7.8 µmol/kg/min and 6.4 µmol/kg/min.

Question: And the “Glucose Production, GNG Total” value (WKY rats; [1])?
Answer: Its value is 10.7 µmol/kg/min and 11.2 µmol/kg/min and 10.5 µmol/kg/min and 8.1 µmol/kg/min.

Question: And the “Glucose Production, Glycogenolysis” value (WKY rats; [1])?
Answer: The value was 6.9 µmol/kg/min and 4.7 µmol/kg/min and 6.8 µmol/kg/min and 3.4 µmol/kg/min.
